This note sets out measurements from patent US6936615B2, “Heteroaryl derivatives and their use as medicaments” (Zentaris GmbH, priority 2000, dated 2005).

For data set [1], the system named is ovary adenocarcinoma line SKOV-3 (ATCC HTB77). Description: XTT test for cellular dehydrogenase activity (proliferation test), SKOV-3. The data set is classed as cell-based. As to conditions: Homo sapiens, SK-OV-3, values determined from 5 substance concentrations, 45 h incubation + 3 h XTT, read-out: XTT-Assay IC50 SKOV-3 (in-vitro cytotoxicity). As for the experimental part:
(§1) In a proliferation test, the antiproliferative activity of the substance D-43411 was examined using established tumor cell lines. In the test used, the cellular dehydrogenation activity is determined, which makes it possible to determine the vitality of the cell and, indirectly, the cell count. The cell lines used are the human cervical carcinoma cell lines KB/HeLa (ATCC/CCL17), the murine lymphocyte leukaemia L1210 (ATCC CCL-219), the human breast adenocarcinoma line MCF7/ATCC HTB22) and the ovary adenocarcinoma line SKOV-3 (ATCC HTB77). These are established cell lines which are very well characterized and were obtained from ATCC and cultured.
(§2) The adherently growing tumor cell lines HeLa/KB, SKOV-3 and MCF7 and the L1210 leukaemia line, which grows in suspension, were cultivated under standard conditions in an incubator with gas inlet at 37° C., 5% CO2 and 95% atmospheric humidity. […]
(§3) For the XTT assay, 1 mg/ml of XTT (sodium 3′-[1-(phenylaminocarbonyl)-3,4-tetrazolium]-bis(4-methoxy-6-nitro)benzenesulfonic acid) is dissolved in RPMI-1640 medium without Phenol Red. […] The cell plates are then incubated in the incubator with gas inlet for a further 3 h, and the optical density (OD490nm) is determined in a photometer.
(§4) Using the OD490nm obtained, the inhibition in percent relative to the control is calculated. […]
(In general: Tetrazolium assays rely on reduction of a dye to a coloured formazan, in cell work by metabolically active cells.)

The test system of data set [2] is murine lymphocyte leukaemia L1210 (ATCC CCL-219). Description: XTT test for cellular dehydrogenase activity (proliferation test), L1210. The data set is classed as cell-based. As to conditions: Mus musculus, values determined from 5 substance concentrations, 45 h incubation + 3 h XTT, read-out: XTT-Assay IC50 L1210 (in-vitro cytotoxicity). How it is done: as §1, §2, §3, §4

The test system of data set [3] is human cervical carcinoma cell lines KB/HeLa (ATCC/CCL17). Description: XTT test for cellular dehydrogenase activity (proliferation test), KB/HeLa. As to conditions: values determined from 5 substance concentrations, 45 h incubation + 3 h XTT, read-out: XTT-Assay IC50 KB/HeLa (in-vitro cytotoxicity). It is filed as cell-based. As for the experimental part: as §1, §2, §3, §4

In data set [4] the test system is human breast adenocarcinoma line MCF7 (ATCC HTB22). Description: XTT test for cellular dehydrogenase activity (proliferation test), MCF7. As to conditions: test period of 48 h. The data set is classed as cell-based. How it is done: as §1, §2, §3, §4

Take `COc1cc(OC)cc(N2CCN(C(=O)c3ccnc4ccccc34)CC2)c1`: the melting point is 146 to 148 °C.

For the compound `COc1cc(OC)cc(N2CCN(C(=O)C3c4ccccc4NC4C=CC=CC43)CC2)c1` [D-43411], the IC50 in data set [1] was under 0.3 ng/mL; in data set [2] it was under 0.3 ng/mL; in data set [3], under 0.3 ng/mL; in data set [4] (Homo sapiens, values determined from 5 substance concentrations, read-out: XTT-Assay IC50 MCF7 (in-vitro cytotoxicity)), over 3160 ng/mL. Also, the “inhibition (antiproliferative effect) in MCF7” value in data set [4] (at 3.16_g/ml) is listed as 18%.

As usually defined, the melting point is the temperature of the solid-liquid transition.
